Laboratory results taken from PubChem BioAssay (NCI).
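Cells were grown in 96-well plates and exposed to each compound for 48 hours at five concentrations; endpoints were interpolated linearly between bracketing concentrations, or set to the highest concentration if not reached. TGI marks complete inhibition of growth.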

How the values were obtained:
Assay in all cases: NCI tumour cell line growth inhibition, 48 h
DU-145 prostate = system: DU-145 prostate
MDA-N = system: MDA-N
HOP-18 NSCLC = system: HOP-18 NSCLC
DMS 273 small cell lung = system: DMS 273 small cell lung

SMILES: Nc1ccc(Oc2ccc(C3(c4ccc(Oc5ccc(N)c(O)c5)cc4)C4CC5CC(C4)CC3C5)cc2)cc1O
- TGI (DU-145 prostate): 3.68 µM
- TGI (MDA-N): 4.75 µM

SMILES: CCOC(=O)/C(C#N)=c1/s/c(=C(\O)N/N=C/c2ccc(OC)cc2)c(=N)n1-c1ccccc1
- TGI (HOP-18 NSCLC): > 100 µM

SMILES: CC(C)OP(=O)(OC(C)C)C(=Nc1ccc(N=C(NNc2ccc([N+](=O)[O-])cc2)P(=O)(OC(C)C)OC(C)C)cc1)NNc1ccc([N+](=O)[O-])cc1
- TGI (DMS 273 small cell lung): > 100 µM
